This is an account of results in PMC5587747, “A natural chalcone induces apoptosis in lung cancer cells: 3D-QSAR, docking and an in vivo/vitro assay” (Scientific Reports, 2017).

Read-outs that look alike come from different tables or passages of the source.

The test system of one data set is S180-bearing mice. The experiment in a line: In vivo antitumor activity in S180 implanted mice. The settings on record: 25 mg/kg oral daily, 12 days. As to the method:
The animal experiments were carried out according to the National Institute of Health Guide for the Care and Use of Laboratory Animals. And the use of experimental animals was approved by the Animal Ethics Committee of Shenyang Pharmaceutical University. Male Kunming mice, were housed in separate cages under standard conditions (20–24 °C), relative humidity (55% ± 5%) and a 12 h light/12 h dark cycle, and allowed to acclimatize for 3 days prior to the start of experiment. Cultured S180 cells were harvested and washed with sterilized PBS (pH 7.2) three times and resuspended at a density of 6 × 10^6 cells/ml. Mice received subcutaneous implants of 0.2 mL/mouse on the right flank by means of hypodermic injection. Then the mice were divided randomly into 5 groups, including model, positive control and treatment groups with 10 mice in each group after inoculation for 24 h. […] Both groups received oral administrations via an intubation needle every day. […] The weight of the mice was recorded every day throughout the experiment. Finally, the mice were sacrificed by cervical dislocation just 2 h after the last administration. Then the tumor and spleen tissues were harvested and weighed immediately. After that the in vivo tumor inhibition ratio was calculated as: Inhibition ratio (%) = 100((A−B)/A), in which A represents the average tumor weight of the control group and B is recorded as the tumor weight of the administration group. Then, the spleen index was recorded using the following formula:
Spleen index = the final weight of spleen (mg)/the final average body weight (g) without tumor.

The next data set deals with H292 cells. Description: MTT cytotoxicity assay, H292 cells. Type of data set: cell-based, human. On the procedure:
(§1) The cytotoxicities of the tested flavonoids were assayed in ten human lung cancer cell lines (A549, H226, H358, H522, H292, H1944, H460, H1792, SW1573, and Calu-1) using MTT reduction assay. Cisplatin (DDP) was selected as a positive control. Compounds 1–37 were dissolved in DMSO to obtain a clear solution of 1 M, which was diluted to 400 mM, 200 mM, 100 mM, 75 mM, 50 mM, 37.5 mM, 25 mM, 10 mM and 1 mM respectively as stock solutions. The DMSO concentration in the medium was kept below 0.10%. Moreover, the stability of tested compounds in experimental buffer was confirmed at 24 h and 48 h respectively by means of HPLC analysis. Then the human lung cancer cells were placed in 96-well culture plates (5 × 10^4 cells/well) and incubated for 24 h. Then, the cells were pretreated with different concentrations of test samples (gradient concentrations 1.0, 10.0, 25.0, 37.5, 50, 75, 100, 200, 400, 1000 μM for compounds 1–37 and DDP) for 48 h. And cell growth was measured by MTT assays. The cytotoxicities against the lung cancer cells were determined systematically and expressed as IC50 value.
For orientation: Formazan colour is commonly taken as a measure of viable cells.

The subject of another data set is H522. Description: MTT cytotoxicity assay, H522 cells. Type of data set: cell-based, human. The note with it: DDP 10 μM. On the procedure: as §1
In a further data set the test system is H226. The experiment in a line: MTT cytotoxicity assay, H226 cells. Type of data set: cell-based, human. The note with it: DDP 10 μM. On the procedure: as §1
The subject of the next data set is H358. Description: MTT cytotoxicity assay, H358 cells. The note with it: DDP 10 μM. Type of data set: cell-based, human. On the procedure:
as §1

A further data set deals with A549. Description: MTT cytotoxicity assay, A549 cells. Type of data set: cell-based, human. The note with it: DDP 10 μM. As to the method: as §1
For another data set, the system named is Calu-1. Description: MTT cytotoxicity assay, Calu-1 cells. Format: cell-based, human. The settings on record: DDP 10 μM. As to the method: as §1
In a further data set the test system is SW1573. Description: MTT cytotoxicity assay, SW1573 cells. Type of data set: cell-based, human. The note with it: DDP 10 μM. On the procedure: as §1
A further data set relates to H1792. Description: MTT cytotoxicity assay, H1792 cells. Format: cell-based, human. The settings on record: DDP 10 μM. On the procedure: as §1
In another data set the test system is H460. Description: MTT cytotoxicity assay, H460 cells. The note with it: DDP 10 μM. Format: cell-based, human. On the procedure: as §1
The next data set has as its system H1944. The experiment in a line: MTT cytotoxicity assay, H1944 cells. The settings on record: DDP 10 μM. Format: cell-based, human. On the procedure: as §1
Where [1] appears, read: Homo sapiens, NCI-H292, H292 cells, MTT, 48 h, Table S2, read-out: IC50.
The mark [2] stands for this setting: Homo sapiens, NCI-H292, H292 cells, Table S2, read-out: pIC50 (converted).
Where [3] appears, read: Homo sapiens, NCI-H292, H292 cells, MTT, 48 h, read-out: IC50.

In the case of `O=P1(N(CCCl)CCCl)NCCCO1` (stereo not shown) [CTX, Cyclophosphamide, reference compound], in the data set on S180-bearing mice, the “Body weight/g After experiment” value came to 28.09 ± 0.56 g, the “Body weight/g Before experiment” value amounted to 35.97 ± 0.89 g and the “Inhibitory rate (%)” value is 80.75%. In the data set on S180-bearing mice (mean ± SE), this compound showed a Tumor weight/g of 1.55 ± 0.30 g.
For the compound `COc1cc(OC)c(Cl)c(-c2cc(=O)c3ccc4occc4c3o2)c1Cl` [Compound 1], the IC50 with H292 cells (setting [1]) and in the data set with H292 cells (setting [2]) was 490 µM throughout.
For `O=c1cc(-c2ccccc2)oc2c1c(O)cc1occc12` [Compound 3, kanjone], the IC50 in the data set on H292 cells (setting [1]) and in the data set with H292 cells (setting [2]) was above 1000 µM in each case.
Consider `O=c1cc(-c2ccc(O)cc2)oc2c1ccc1occc12` [Compound 4], for which the IC50 in the data set with H292 cells (setting [1]) and with H292 cells (setting [2]) was 705 µM throughout.
`O=c1cc(-c2ccc3c(c2)OCO3)oc2c1ccc1occc12` [Compound 6]: the IC50 in the data set with H292 cells (setting [1]) and in the data set with H292 cells (setting [2]) was above 1000 µM throughout.
Regarding `O=c1cc(-c2ccccc2)oc2c1cc(O)c1occc12` [Compound 8], the IC50 with H292 cells (setting [1]) and in the data set with H292 cells (setting [2]) was 750 µM throughout.
For the compound `COc1cc2c(=O)cc(-c3ccccc3)oc2c2ccoc12` [Compound 9, 6-hydroxy,3-methoxyfuro[8,7:4′′,5′′]flavone], the IC50 with H292 cells (setting [1]) and in the data set with H292 cells (setting [2]) was 975 µM throughout.
As to `COc1c(-c2ccccc2)oc2c(ccc3occc32)c1=O` [Compound 10], the IC50 with H292 cells (setting [1]) and with H292 cells (setting [2]) was 794 µM each time.
Regarding `COc1c(-c2ccccc2)oc2c(cc(O)c3occc32)c1=O` [Compound 11, demethylate kanjone], the IC50 with H292 cells (setting [1]) and with H292 cells (setting [2]) was above 1000 µM each time.
As for `COc1c(-c2ccc3c(c2)OCO3)oc2c3c(ccc2c1=O)OC(C)(C)C=C3` [Compound 12, pongapinnol-C], the IC50 in the data set on H292 cells (setting [3]) and in the data set with H292 cells (setting [2]) was 100 µM in each case.
Take `COc1cccc(-c2cc(=O)c3ccc4occc4c3o2)c1` [Compound 13]: the IC50 in the data set with H292 cells (setting [1]) and in the data set on H292 cells (setting [2]) was 615 µM throughout.
As to `O=c1cc(-c2cccc(O)c2)oc2c1ccc1occc12` [Compound 14, isopongaglabol], the IC50 with H292 cells (setting [1]) and in the data set with H292 cells (setting [2]) was 630 µM each time.
As for `COc1cc(OC)cc(-c2cc(=O)c3ccc4occc4c3o2)c1` [Compound 15], the IC50 in the data set on H292 cells (setting [3]) and in the data set on H292 cells (setting [2]) was 158 µM in each case.
As for `COc1ccc(OC)c(-c2cc(=O)c3ccc4occc4c3o2)c1` [Compound 16], the IC50 with H292 cells (setting [1]) and with H292 cells (setting [2]) was 374 µM each time.
Consider `COc1ccc(O)cc1-c1oc2c(ccc3occc32)c(=O)c1OC` [Compound 18], for which the IC50 in the data set with H292 cells (setting [1]) and with H292 cells (setting [2]) was above 1000 µM throughout.
On to `COc1cc(O)cc(-c2oc3c(ccc4occc43)c(=O)c2OC)c1` [Compound 19], for which the IC50 in the data set with H292 cells (setting [1]) and with H292 cells (setting [2]) was above 1000 µM throughout.
Regarding `COc1c2ccoc2cc2oc(-c3ccccc3)cc(=O)c12` [Compound 20], the IC50 in the data set with H292 cells (setting [1]) and in the data set on H292 cells (setting [2]) was above 1000 µM in each case.
As for `COc1c2ccoc2cc2oc(-c3ccc4c(c3)OCO4)cc(=O)c12` [Compound 22], the IC50 in the data set with H292 cells (setting [1]) and with H292 cells (setting [2]) was above 1000 µM each time.
Take `COc1ccc2c(=O)c(OC)c(-c3ccc4c(c3)OCO4)oc2c1` [Compound 24]: the IC50 with H292 cells (setting [1]) and in the data set on H292 cells (setting [2]) was 394 µM in each case.
`COc1ccc2c(=O)c(OC)c(-c3ccc(OC)c(OC)c3)oc2c1` [Compound 25]: the IC50 in the data set with H292 cells (setting [1]) and in the data set with H292 cells (setting [2]) was 1000 µM throughout.
Take `COc1ccc(-c2coc3cc(CC=C(C)C)ccc3c2=O)cc1` [Compound 26]: the IC50 in the data set on H292 cells (setting [3]) and in the data set on H292 cells (setting [2]) was 294 µM in each case.
For the compound `COc1ccc(-c2coc3cc(O)ccc3c2=O)cc1` [Compound 27], the IC50 in the data set on H292 cells (setting [1]) and with H292 cells (setting [2]) was above 1000 µM throughout.
As for `O=c1c(-c2ccc(O)cc2)coc2cc(O)cc(O)c12` [Compound 28], the IC50 with H292 cells (setting [1]) and with H292 cells (setting [2]) was 631 µM in each case.
Turning to `O=c1c(-c2ccc3c(c2)OCO3)coc2cc(O)ccc12` [Compound 29], the IC50 with H292 cells (setting [1]) and in the data set on H292 cells (setting [2]) was 1000 µM throughout.
Take `COc1ccc(-c2coc3c(O)c(O)ccc3c2=O)cc1O` [Compound 30]: the IC50 with H292 cells (setting [1]) and with H292 cells (setting [2]) was 501 µM each time.
With `COc1cc(O)cc(-c2coc3cc(O)ccc3c2=O)c1` [Compound 31], the IC50 with H292 cells (setting [1]) and with H292 cells (setting [2]) was above 1000 µM each time.
On to `COc1ccc(-c2coc3c(OC)c(O)ccc3c2=O)cc1` [Compound 32], for which the IC50 in the data set on H292 cells (setting [1]) and in the data set on H292 cells (setting [2]) was 776 µM in each case.
For the compound `COc1ccc(-c2coc3c(O)c(OC)ccc3c2=O)cc1` [Compound 33], the IC50 in the data set with H292 cells (setting [3]) and in the data set with H292 cells (setting [2]) was 216 µM in each case.
Take `CC1(C)C=Cc2c(ccc(C(=O)/C=C/c3ccc4c(c3)OCO4)c2O)O1` [Compound 35]: the IC50 in the data set with H292 cells (setting [3]) and in the data set with H292 cells (setting [2]) was 61.5 µM in each case.
Regarding `CC1(C)C=Cc2c(ccc3c2O[C@H](c2ccccc2)CC3=O)O1` [Compound 36], the IC50 with H292 cells (setting [3]) and in the data set with H292 cells (setting [2]) was 50 µM each time.
`CC1(C)C=Cc2c(ccc3c2O[C@H](c2ccc4c(c2)OCO4)CC3=O)O1` [Compound 37]: the IC50 with H292 cells (setting [3]) and with H292 cells (setting [2]) was 61.5 µM in each case.
`N.N.[Cl][Pt][Cl]` [DDP, Cisplatin, reference compound]: the “inhibition rate (IR %)” value was found to be 91.3% with H292 cells (H292, DDP 10 μM); 69.6% in the data set with H522; 87.4% in the data set with H226; 81.2% in the data set with H358; 76.4% in the data set with A549; 59.1% in the data set with Calu-1. Besides, the “inhibition rate (IR %)” value in the data set with SW1573 stood at 69.4%; in the data set with H1792 it was 44.6%; in the data set on H460, 89.1%; with H1944 it was 40.4%.
In the case of genistein [Compound 21], the IC50 in the data set with H292 cells (H292 cells, MTT, 48 h, Table S2, read-out: IC50) was above 1000 µM. Moreover, the pIC50 (usually −log10 of the IC50, conventionally taken in molar units) with H292 cells (H292 cells, Table S2) is below 3.000.
